Where a name gives a salt, the structure may show the parent alone.
Key:
ECHCG = test: Greenhouse post-emergence herbicidal action against ECHCG; assay type: in vivo, Echinochloa crus-galli
Excerpt: (§1) For the post-emergence treatment, the test plants were first grown to a height of 3 to 20 cm, depending on the plant habit, and only then treated. Here, the herbicidal compositions were suspended or emulsified in water as distribution medium and sprayed using finely distributing nozzles
(§2) The respective components A and B and/or C were formulated as 10% by weight strength emulsion concentrate and introduced to the spray liquor with the amount of solvent system used for applying the active compound. In the examples, the solvent used was water.
(§3) The test period extended over 21 days. During this time, the plants were tended, and their response to the treatments with active compound was evaluated.
(§4) The evaluation for the damage caused by the chemical compositions was carried out using a scale from 0 to 100%, compared to the untreated control plants. Here, 0 means no damage and 100 means complete destruction of the plants.
(§5) In the examples below, the value E which is to be expected if the activity of the individual compounds is just additive was calculated using the method of S. R. Colby (1967) “Calculating synergistic and antagonistic responses of herbicide combinations”, Weeds 15, p. 22 ff. E=X+Y−([…]) where • X=effect in percent using active compound A at an application rate a; • Y=effect in percent using active compound B at an application rate b; • E=expected effect (in %) of A+B at application rates a+b.
(§6) If the observed effect is higher than the value E calculated according to Colby, a synergistic effect is present.

AVEFA = test: Greenhouse post-emergence herbicidal action against AVEFA; assay type: in vivo, Avena fatua
Excerpt: as §1, §2, §3, §4, §5, §6

POLPE = test: Greenhouse post-emergence herbicidal action against POLPE; assay type: in vivo, Polygonum persicaria; conditions: 21 days
Excerpt: as §1, §2, §3, §4, §5, §6

BIDPI = test: Greenhouse post-emergence herbicidal action against BIDPI; assay type: in vivo, Bidens pilosa
Excerpt: as §1, §2, §3, §4, §5, §6

SETFA = test: Greenhouse post-emergence herbicidal action against SETFA; assay type: in vivo, Setaria faberii
Excerpt: as §1, §2, §3, §4, §5, §6

GALAP = test: Greenhouse post-emergence herbicidal action against GALAP; assay type: in vivo, Galium aparine
Excerpt: as §1, §2, §3, §4, §5, §6

ABUTH = test: Greenhouse post-emergence herbicidal action against ABUTH; assay type: in vivo, Abutilon theophrasti
Excerpt: as §1, §2, §3, §4, §5, §6

BRAPL = test: Greenhouse post-emergence herbicidal action against BRAPL; assay type: in vivo, Brachiaria plantaginea
Excerpt: as §1, §2, §3, §4, §5, §6

TRZAW = test: Pre-emergence safener action (crop damage) in TRZAW; assay type: in vivo, Triticum aestivum (Winter wheat); conditions: 21 days
Method: as §4
(§7) In the examples below, the mixtures were applied by the pre-emergence method. To this end, the test plants were initially sown and covered with a thin layer of soil. Afterward (i.e. prior to the germination of the test plants), the mixtures according to the invention were sprayed onto the soil as an aqueous spray liquor at the stated application rate. As in the post-emergence method described above, the test period was 21 days. The damage was then evaluated as described above using a scale from 0 to 100% damage in comparison to untreated control plants (0% damage).
(§8) A safener action is present if the damage to the crop plant caused by using a mixture according to the invention which contains a safener C) is less than the damage caused when active compound A or active compounds A and B are used without safener.

TRFPR = test: Pre-emergence herbicidal action against TRFPR; assay type: in vivo, Trifolium pratense; conditions: 21 days
Method: as §4, §7, §8

POAPR = test: Pre-emergence herbicidal action against POAPR; assay type: in vivo, Poa pratensis; conditions: 21 days
Method: as §4, §7, §8

[1] = I.1 1.95 g/ha and/or b10.1 125 g/ha
[2] = I.1 3.91 g/ha and/or b10.1 250 g/ha
[3] = I.14 0.49 g/ha and/or b10.3 62.5 g/ha
[4] = I.14 0.98 g/ha and/or b10.3 125 g/ha
[5] = I.14 0.49 g/ha and/or b11.1 62.5 g/ha
[6] = I.14 0.98 g/ha and/or b11.1 125 g/ha
[7] = I.14 0.49 g/ha and/or b13.3 62.5 g/ha
[8] = I.14 0.98 g/ha and/or b13.3 125 g/ha
[9] = I.7 200 g/ha and/or c.1 200 g/ha
[10] = I.7 400 g/ha and/or c.1 400 g/ha
[11] = I.8 200 g/ha and/or c.1 200 g/ha
[12] = I.8 400 g/ha and/or c.1 400 g/ha

With `CS(=O)(=O)c1ccc(C(=O)C2C(=O)CCCC2=O)c(Cl)c1` [b5.2, sulcotrione, reference compound] the “Herbicidal action against ECHCG found” value (ECHCG; 21 days, application rate g/ha: I.8 1.95, b5.2 31.25) was 60% and the “Herbicidal action against ECHCG found” value (ECHCG; 21 days, application rate g/ha: I.8 3.91, b5.2 62.5) was 75%.
In the case of `CC(C)N.O=C(O)CNCP(=O)(O)O` [b6.1, glyphosate isopropylammonium salt, reference compound], the “Herbicidal action against AVEFA found” value (AVEFA; 21 days, application rate g/ha: I.7 1.95, b6.1 125) is reported as 0% and the “Herbicidal action against AVEFA found” value (AVEFA; 21 days, application rate g/ha: I.7 3.91, b6.1 250) is reported as 0%.
With `CP(=O)(O)CCC(N)C(=O)O` (stereo not drawn) [b7.1, glufosinate ammonium salt, reference compound] the “Herbicidal action against POLPE found” value (POLPE; application rate g/ha: I.7 1.95, b7.1 250) was 0%, the “Herbicidal action against POLPE found” value (POLPE; application rate g/ha: I.7 3.91, b7.1 500) was 30% and the “Herbicidal action against AVEFA found” value (AVEFA; 21 days, application rate g/ha: I.7 1.95, b7.1 250) was 0%. The “Herbicidal action against AVEFA found” value (AVEFA; 21 days, application rate g/ha: I.7 3.91, b7.1 500) was 20%.
In the case of `CCC(CC)Nc1c([N+](=O)[O-])cc(C)c(C)c1[N+](=O)[O-]` [b9.1, pendimethalin, reference compound], the “Herbicidal action against AVEFA found” value (AVEFA; 21 days, application rate g/ha: I.1 0.98, b9.1 125) is reported as 10% and the “Herbicidal action against AVEFA found” value (AVEFA; 21 days, application rate g/ha: I.1 1.95, b9.1 250) is reported as 20%.
With `COC[C@H](C)N(C(=O)CCl)c1c(C)csc1C` [b10.1, dimethenamid-P, reference compound] the “Herbicidal action against BIDPI found” value (BIDPI; [1]) was 25%, the “Herbicidal action against BIDPI found” value (BIDPI; [2]) was 25% and the “Herbicidal action against AVEFA found” value (AVEFA; [1]) was 30%. For the same molecule, the “Herbicidal action against AVEFA found” value (AVEFA; [2]) was 30%.
For `CCOCN(C(=O)CCl)c1c(C)cccc1CC` [b10.2, acetochlor, reference compound], the “Herbicidal action against BIDPI found” value (BIDPI; 21 days, application rate g/ha: I.14 1.95, b10.2 250) was 30% and the “Herbicidal action against BIDPI found” value (BIDPI; 21 days, application rate g/ha: I.14 3.91, b10.2 500) was 70%.
In the case of `CCc1cccc(C)c1N(C(=O)CCl)[C@@H](C)COC` [b10.3, S-metolachlor, reference compound], the “Herbicidal action against SETFA found” value (SETFA; [3]) is reported as 30%, the “Herbicidal action against SETFA found” value (SETFA; [4]) is reported as 60% and the “Herbicidal action against GALAP found” value (GALAP; [3]) is reported as 0%. For the same molecule, the “Herbicidal action against GALAP found” value (GALAP; [4]) was 25%.
`CCC(C)(CC)c1cc(NC(=O)c2c(OC)cccc2OC)on1` [b11.1, isoxaben, reference compound] was tested, and the “Herbicidal action against SETFA found” value (SETFA; [5]) was 0%, the “Herbicidal action against SETFA found” value (SETFA; [6]) was 10% and the “Herbicidal action against GALAP found” value (GALAP; [5]) was 0%. The “Herbicidal action against GALAP found” value (GALAP; [6]) was 0%.
With `COc1c(Cl)ccc(Cl)c1C(=O)O` [b13.2, dicamba, reference compound] the “Herbicidal action against ECHCG found” value (ECHCG; I.14 1.95 g/ha and/or b13.2 125 g/ha) was 0% and the “Herbicidal action against ECHCG found” value (ECHCG; I.14 3.91 g/ha and/or b13.2 250 g/ha) was 30%.
For `CNC.O=C(O)COc1ccc(Cl)cc1Cl` [b13.3, 2,4-D dimethylammonium salt, reference compound], the “Herbicidal action against ABUTH found” value (ABUTH; [7]) was 25%, the “Herbicidal action against ABUTH found” value (ABUTH; [8]) was 65% and the “Herbicidal action against BRAPL found” value (BRAPL; [7]) was 20%. For the same molecule, the “Herbicidal action against BRAPL found” value (BRAPL; [8]) was 50%.
With `CCOC(=O)C1=NN(c2ccc(Cl)cc2Cl)C(C)(C(=O)OCC)C1` (stereo not drawn) [c.1, mefenpyr-diethyl, reference compound] the “Damage to crop plant TRZAW” value (TRZAW; [9]) was 0%, the “Damage to crop plant TRZAW” value (TRZAW; [10]) was 0% and the “Damage to crop plant TRZAW” value (TRZAW; [11]) was 0%. For the same molecule, the “Damage to crop plant TRZAW” value (TRZAW; [12]) was 0%, the “Herbicidal action against TRFPR” value (TRFPR; [9]) was 5% and the “Herbicidal action against TRFPR” value (TRFPR; [10]) was 5%. For the same molecule, the “Herbicidal action against TRFPR” value (TRFPR; [11]) was 5%, the “Herbicidal action against TRFPR” value (TRFPR; [12]) was 5% and the “Herbicidal action against POAPR” value (POAPR; [9]) was 0%. For the same molecule, the “Herbicidal action against POAPR” value (POAPR; [10]) was 0%, the “Herbicidal action against POAPR” value (POAPR; [11]) was 0% and the “Herbicidal action against POAPR” value (POAPR; [12]) was 0%.

From patent US7375058B2, “Herbicidal mixtures based on 3-phenyluracils” (priority 2002, dated 2008)
